Laboratory results published in patent US8993562B2, “Imidazo[1,2-b]pyridazines, processes, uses, intermediates and compositions” (Ferrer Internacional, S.A., priority 2006, dated 2015).

Key:
[1] = tested on: male CD1 mice; assay: In vivo predictive anesthetic test (loss of righting reflex)
Experimental: c) In Vivo Determination of Predictive Anesthetic Activity
The in vivo effects of these compounds were assessed by a predictive anesthetic test in mice as the loss of righting reflex (Kralic et al., Neuropharmacology, 43(4), 685-689 2002; Belelli et al., Neuropharmacology, 45, 57-71, 2003).
Groups of 5-8 male CD1 mice, weighing 22-26 g at the time of test, were used. The test compounds were administered at 98.0 μmol/kg by mean of intraperitoneal injection. Compounds were suspended in 0.25% agar with one drop of Tween in a volume of 10 mL/kg.

[2] = tested on: male CD1 mice; assay: In vivo predictive sedation-hypnosis test (traveled distance); details: Mus musculus, ip, 0.5 h, traveled distance over 30 min versus control, read-out: % inhib motor activity; for inhibition in vivo at 0.98 µmol/kg: 0.98 μmol/kg intraperitoneal; for inhibition in vivo at 98 µmol/kg: 98.0 μmol/kg intraperitoneal
Experimental: b) In Vivo Determination of Predictive Sedative-hypnotic Action
The in vivo effects of these compounds were assessed by a predictive sedation-hypnosis test in mice (D. J. Sanger et al., Eur. J. Pharmacol., 313, 35-42, 1996; and G. Griebel et al., Psychopharmacology, 146, 205-213, 1999).
Groups of 5-8 male CD1 mice, weighing 22-26 g at the time of test, were used. […] Compounds were suspended in 0.25% agar with one drop of Tween in a volume of 10 mL/kg. Control animals were given the vehicle alone. Using a Smart System (Panlab, S. L., Spain) the traveled distance in cm is recorded for each mouse at 5-minutes intervals during a period of 30 minutes after dosing. The inhibition percentage of traveled distance of treated animals versus control animals (the first 5 minutes were discarded) was calculated.

[3] = tested on: α1-GABAA receptor; assay: Ligand-binding assay, radiolabeled flumazenil competition, cerebellum membranes; details: rat cerebellum membranes, radiolabeled flumazenil 1 nM
Experimental: (§1) a) Ligand-binding Assays. Determination of the Affinity of Test Compounds for α1- and α2-GABAA Receptor
(§2) Male Sprague-Dawley rats weighing 200-250 g at the time of experiment were used. After decapitation of the animal, the cerebellum (tissue that mostly contains α1-GABAA receptor) and spinal cord (tissue that mostly contains α2-GABAA receptor) were removed. The membranes were prepared according to the method by J. Lameh et al. (Prog. Neuro-Psychopharmacol. Biol. Psychiatry, 24, 979-991, 2000) and H. Noguchi et al. (Eur J Pharm, 434, 21-28, 2002) with slight modifications. Once the tissues weighed, they were suspended in 50 mM Tris.HCl (pH 7.4), 1:40 (v/v), or sucrose 0.32 M in the case of spinal cord, homogenized and then centrifuged at 20000 g for 10 minutes at 7° C. The resulting pellet was resuspended under the same conditions and centrifuged again. The pellet was finally resuspended on a minimum volume and kept at −80° C. overnight. A slight modification was used in the case of spinal cord at the first centrifugation step. Centrifugation speed was at 1000 g and the supernatant was collected instead of discarded as in cerebellum. Then, supernatant was centrifuged at 20000 g and resuspended twice more under the same conditions described above for cerebellum. On the next day, the process was repeated until the final pellet was resuspended at a ratio of 1:10 (v/v) in the case of cerebellum and at a ratio of 1:5 (v/v) in the case of spinal cord.
(§3) Affinity was determined by competitive tests using radiolabeled flumazenil as ligand. The tests were performed according to the methods described by S. Arbilla et al. (Eur. J. Pharmacol., 130, 257-263, 1986); and Y. Wu et al. (Eur. J. Pharmacol., 278, 125-132, 1995) using 96-well microtiter plates. The membranes containing the study receptors, flumazenil (radiolabeling at a final concentration of 1 nM) and ascending concentrations of test compounds (in a total volume of 230 μl in 50 mM [pH 7.4] Tris.HCl buffer) were incubated. Simultaneously, the membranes were only incubated with the radiolabeled flumazenil (total binding, 100%) and in the presence of an elevated concentration of unradiolabeled flumazenil (non-specific binding, % estimation of radiolabeled ligand). The reactions started on adding the radiolabeled ligand followed by incubation for 60 minutes at 4° C. At the end of the incubation period, 200 μl of reaction were transferred to a multiscreen plate (Millipore) and filtered using a vacuum manifold and then washed three times with cold test buffer. The multiscreen plates were equipped with a GF/B filter that retained the membranes containing the receptors and the radiolabeled ligand which had been bound to the receptors. After washing, the plates were left till dry. Once dried, scintillation liquid was added and left under stirring overnight. The next day the plates were counted using a Perkin-Elmer Microbeta scintillation counter.
(§4) For analysis of the results the percentage of specific binding for every concentration of test compound was calculated as follows: specific binding−(X−N/T−N)×100 where, X: amount of bound ligand for every concentration of compound. T: total binding, maximum amount bound to the radiolabeled ligand. N: non-specific binding, amount of radiolabeled ligand bound in a non-specific way irrespective of the receptor used.
(§5) Every concentrations of compound were tested in triplicate and their mean values were used to determine the experimental values of % specific binding versus the concentration of compound. Affinity data are expressed as % inhibition at 10^−5M and 10^−7M concentrations.

[4] = tested on: α2-GABAA receptor; assay: Ligand-binding assay, radiolabeled flumazenil competition, spinal cord membranes; details: rat spinal cord membranes, radiolabeled flumazenil 1 nM
Experimental: as §1, §2, §3, §4, §5

[5] = target: T1, GABAA receptor; assay: Comparative assay: IC50 values estimated from Cheng-Prusoff equation; format: binding, rat; details: compounds of the invention; estimated from Ki by Cheng-Prusoff equation, radioligand 1 nM
T1 construct: IC50; other: compounds of the invention; estimated from Ki by Cheng-Prusoff equation, radioligand 1 nM
Experimental: All these compounds have in common that at 3-position, the imidazo[1,2-b]pyradizine ring have an acetamide. The rest of compounds disclosed in WO89/01333 are not structurally so related with the compounds of the present invention.
The IC50 values were estimated from Cheng-Prusoff equation (Cheng Y. C. and Prusoff W. H.; Biochem. Pharmacol. 22, 3099-3108, 1973)
[formula] where, Ki is determined for each one of the compounds of the invention as described above (section (a)). [RL*]: radiolabeled ligand concentration (1 nM). Kd: affinity constant (cerebellum 1.34 nM/spinal cord 1.19 nM)

Compound	% of animals with loss of righting reflex ([1]; 98.0 μmol/kg intraperitoneal) [%]	inhibition in vivo at 0.98 µmol/kg [2] [%]	inhibition in vivo at 98 µmol/kg [2] [%]	% inhib 10^−5 M, affinity for the α1-subunit of the GABAA receptor [3] [%]	% inhib 10^−7 M, affinity for the α1-subunit of the GABAA receptor [3] [%]	% inhib 10^−5 M, affinity for the α2-subunit of the GABAA receptor [4] [%]	% inhib 10^−7 M, affinity for the α2-subunit of the GABAA receptor [4] [%]	IC50 [5] [nM]	% of animals with loss of righting reflex ([1]; double dose than compounds of the present invention) [%]
CCCN(CCC)C(=O)Cc1c(-c2ccc(C)cc2)nc2ccc(Cl)nn12 [Example 2, 2-(6-Chloro-2-p-tolyl-imidazo[1,2-b]pyridazin-3-yl)-N,N-dipropyl-acetamide]	90	38.4	96.7	–	–	–	–	–	–
CCCCN(CCCC)C(=O)Cc1c(-c2ccc(C)cc2)nc2ccc(Cl)nn12 [Example 3, N,N-Dibutyl-2-(6-chloro-2-p-tolyl-imidazo[1,2-b]pyridazin-3-yl)-acetamide]	100	14.6	90.9	–	–	–	–	–	–
COc1ccc(-c2nc3ccc(C)nn3c2CC(=O)N2CCCCC2)cc1 [Example 73, 2-[2-(4-Methoxy-phenyl)-6-methyl-imidazo[1,2-b]pyridazin-3-yl]-1-piperidin-1-yl-ethanone]	–	–	94.1	99.9	76.5	77.0	20.6	–	–
CCN(CC)C(=O)Cc1c(-c2ccc(OC)cc2)nc2ccc(OC)nn12 [Example 75, N,N-Diethyl-2-[6-methoxy-2-(4-methoxy-phenyl)-imidazo[1,2-b]pyridazin-3-yl]-acetamide]	–	–	92.6	99.4	52.1	68.8	9.3	–	–
CCCN(CC1CC1)C(=O)Cc1c(-c2ccc(C)cc2)nc2ccc(C)nn12 [Example 82, N-Cyclopropylmethyl-2-(6-methyl-2-p-tolyl-imidazo[1,2-b]pyridazin-3-yl)-N-propyl-acetamide]	30	–	94.2	–	–	–	–	–	–
Cc1ccc(-c2nc3ccc(C)nn3c2CC(=O)Nc2nccs2)cc1 [Example 83, 2-(6-Methyl-2-p-tolyl-imidazo[1,2-b]pyridazin-3-yl)-N-thiazol-2-yl-acetamide]	–	–	88.9	99.6	97.6	93.1	57.7	–	–
Cc1ccc(-c2nc3ccc(C)nn3c2CC(=O)N(C(C)C)C(C)C)cc1 [Example 84, N,N-Diisopropyl-2-(6-methyl-2-p-tolyl-imidazo[1,2-b]pyridazin-3-yl)-acetamide]	–	–	90.8	100.0	91.7	63.9	3.1	–	–
Cc1ccc(-c2nc3ccc(C)nn3c2CC(=O)Nc2ccccc2)cc1 [Example 86, 2-(6-Methyl-2-p-tolyl-imidazo[1,2-b]pyridazin-3-yl)-N-phenyl-acetamide]	–	–	92.6	99.5	75.9	80.9	23.0	–	–
Cc1ccc(-c2nc3ccc(C)nn3c2CC(=O)Nc2ccccn2)cc1 [Example 88, 2-(6-Methyl-2-p-tolyl-imidazo[1,2-b]pyridazin-3-yl)-N-pyridin-2-yl-acetamide]	–	–	88.5	100.2	83.9	–	–	13	–
Cc1ccc(-c2nc3ccc(C)nn3c2CC(=O)Nc2cc(C)on2)cc1 [Example 95, N-(5-Methyl-isoxazol-3-yl)-2-(6-methyl-2-p-tolyl-imidazo[1,2-b]pyridazin-3-yl)-acetamide]	–	–	–	–	–	–	–	17.1	–
Cc1ccc(-c2nc3ccc(C)nn3c2CC(=O)Nc2cc(C)no2)cc1 [Example 97, N-(3-Methyl-isoxazol-5-yl)-2-(6-methyl-2-p-tolyl-imidazo[1,2-b]pyridazin-3-yl)-acetamide]	–	–	–	–	–	–	–	14.6	–
Cc1ccc(-c2nc3ccc(C)nn3c2CC(=O)Nc2nncs2)cc1 [Example 98, 2-(6-Methyl-2-p-tolyl-imidazo[1,2-b]pyridazin-3-yl)-N-[1,3,4]thiadiazol-2-yl-acetamide]	–	–	–	–	–	–	–	12.2	–
Cc1ccc(-c2nc3ccc(C)cn3c2CC(=O)N(C)C)cc1 [zolpidem, N,N,6-trimethyl-2-p-tolylimidazo[1,2-a]pyridine-3-acetamide, reference compound]	–	18.3	91.7	99.4	73.6	74.1	19.9	–	80
